According to US20110039762A1, “TARGETED ANTIMICROBIAL MOIETIES” (C3 JIAN, INC., priority 2009, published 2011):
Entries after “also recorded” stand apart in the source; their conditions may differ.

B1: PF-389: peptide having multiple activities (peptide)
chain 1: GLQFKEIAEEFHITTTALQQWHKDNGYPIYNKNNRK
chain 2: B1 chain 1
modifications: Peptide with targeting and/or antimicrobial activity

Columns and labels:
[1] = system: S. pneumoniae; assay: Kill or inhibit growth/proliferation; morphology, biofilm and growth disruption (Tables 5, 6); format: cell-based, Streptococcus pneumoniae; design: key: A: Peptide aggregates; B: Less hyphal formation; Clumps; Diffuse clumps and small polyps; F: Diffuse growth; H: Thin; I: Growth inhibition; Microcolony formation; Rippled; Small polyps; Thick; W: Halo formation on top, microlonies on bottom; further: test concentration or dose not given here
[2] = system: MRSA; assay: as above; format: cell-based, Methicillin-resistant Staphylococcus aureus; design: key: A: Peptide aggregates; B: Less hyphal formation; Clumps; Diffuse clumps and small polyps; F: Diffuse growth; H: Thin; I: Growth inhibition; Microcolony formation; Rippled; Small polyps; Thick; W: Halo formation on top, microlonies on bottom; further: test concentration or dose not given here
[3] = system: microorganisms; assay: Peptides having multiple activities (targeting/binding, antimicrobial, growth or phenotype altering)
Description: In certain embodiments, peptides described herein can have multiple activities. Thus for example, a peptide can have both binding/targeting activity and antimicrobial activity. Such peptides can be used, e.g., in a chimeric construct, for any or all of these properties. Thus, for example, a peptide designated “B” in Table 8 can be used as a targeting peptide. If it is also designated G or M it can also be used for antimicrobial activity.

[4] = system: E. coli; assay: Kill or inhibit growth/proliferation; morphology, biofilm and growth disruption (Tables 5, 6); format: cell-based, Escherichia coli; design: key: A: Peptide aggregates; B: Less hyphal formation; Clumps; Diffuse clumps and small polyps; F: Diffuse growth; H: Thin; I: Growth inhibition; Microcolony formation; Rippled; Small polyps; Thick; W: Halo formation on top, microlonies on bottom; further: test concentration or dose not given here
[5] = system: E. faecalis; assay: as above; format: cell-based, Enterococcus faecalis; design: key: A: Peptide aggregates; B: Less hyphal formation; Clumps; Diffuse clumps and small polyps; F: Diffuse growth; H: Thin; I: Growth inhibition; Microcolony formation; Rippled; Small polyps; Thick; W: Halo formation on top, microlonies on bottom; further: test concentration or dose not given here
[6] = system: C. jejuni; assay: as above; format: cell-based, Campylobacter jejuni; design: key: A: Peptide aggregates; B: Less hyphal formation; Clumps; Diffuse clumps and small polyps; F: Diffuse growth; H: Thin; I: Growth inhibition; Microcolony formation; Rippled; Small polyps; Thick; W: Halo formation on top, microlonies on bottom; further: test concentration or dose not given here
[7] = system: S. epidermidis; assay: as above; format: cell-based, Staphylococcus epidermidis; design: key: A: Peptide aggregates; B: Less hyphal formation; Clumps; Diffuse clumps and small polyps; F: Diffuse growth; H: Thin; I: Growth inhibition; Microcolony formation; Rippled; Small polyps; Thick; W: Halo formation on top, microlonies on bottom; further: test concentration or dose not given here
[8] = system: microorganisms (e.g., bacteria, yeasts, fungi); assay: Targeting peptide binding to target microorganisms (Table 3); conditions: preferably 1x PBS; for Target(s) (microorganisms bound by the targeting peptide): peptide binding in aqueous buffers varied by peptide solubility; for Target(s): microorganism(s) the targeting peptide binds, peptide binding conducted in aqueous buffers varied by peptide solubility

Molecule | Organism, effect [1] | Organism, effect [2] | Activities [3] | Organism, effect [4] | Organism, effect [5] | Organism, effect [6] | Organism, effect [7] | Target(s) (microorganisms bound by the targeting peptide) [8] | Target(s) [8]
PF-418: peptide having multiple activities (FFLVHFYIRKRKGKVSIFLNYF; Peptide with targeting and/or antimicrobial activity) | S. pneumoniae (D) | MRSA (D) | G B | E. coli (C) | E. faecalis (D) | C. jejuni (D) | S. epidermidis (M) |  | 
PF-431: peptide having multiple activities (VAYAAICWW; Peptide with targeting and/or antimicrobial activity) | S. pneumoniae (R) | MRSA (C) | G B |  | E. faecalis (R) | C. jejuni (R) | S. epidermidis (M) |  | 
PF-615: peptide having multiple activities (FLNRFIFYIFTVKTKSALIKNLFLD; Peptide with targeting and/or antimicrobial activity) | S. pneumoniae (D) | MRSA (D) | G B | E. coli (C) | E. faecalis (D) | C. jejuni (D) | S. epidermidis (D) |  | 
PF-595: peptide having multiple activities (LQNKIYELLYIKERSKLCS; Peptide with targeting and/or antimicrobial activity) | S. pneumoniae (R) | MRSA (D) | G B | E. coli (C) | E. faecalis (D) | C. jejuni (D) | S. epidermidis (C) |  | 
PF-610: peptide having multiple activities (VFLKLKTSKIDLASIIFYP; Peptide with targeting and/or antimicrobial activity) | S. pneumoniae (D) | MRSA (D) | G B | E. coli (C) | E. faecalis (D) | C. jejuni (D) | S. epidermidis (C) |  | 
PF-607: peptide having multiple activities (YIESDPRKFDYIFGAIRDH; Peptide with targeting and/or antimicrobial activity) | S. pneumoniae (R) | MRSA (S) | G B |  | E. faecalis (A) | C. jejuni (R) | S. epidermidis (M) | S. epidermidis and P. mirabilis and E. coli and MRSA and S. pneumoniae and C. jeikeium | 
PF-393: peptide having multiple activities (chain 1 DLVQSILSEFKKSG; chain 2 DLVQSILSEFKKSG; Peptide with targeting and/or antimicrobial activity) | S. pneumoniae (R) | MRSA (C) | G B |  | E. faecalis (A) | C. jejuni (R) | S. epidermidis (R) |  | S. epidermidis and E. coli and C. albicans and MRSA and S. pneumoniae and C. jejuni
PF-581: peptide having multiple activities (WTARARR; Peptide with targeting and/or antimicrobial activity) | S. pneumoniae (A) | MRSA (A) | G B |  | E. faecalis (A) | C. jejuni (A) |  |  | 
PF-614: peptide having multiple activities (GLDIYA; Peptide with targeting and/or antimicrobial activity) | S. pneumoniae (R) |  |  |  | E. faecalis (A) | C. jejuni (R) | S. epidermidis (M) | S. epidermidis; also recorded: E. coli; also recorded: C. jeikeium | 
PF-599: peptide having multiple activities (LFEIFKPKH; Peptide with targeting and/or antimicrobial activity) | S. pneumoniae (R) | MRSA (C) | G B |  | E. faecalis (A) | C. jejuni (R) | S. epidermidis (M) | S. epidermidis and P. mirabilis and E. coli and C. albicans and MRSA and S. pneumoniae and C. jeikeium | 
PF-609: peptide having multiple activities (TEIKLDNNEYLVLNLDDILGILK; Peptide with targeting and/or antimicrobial activity) | S. pneumoniae (R) | MRSA (C) | G B |  | E. faecalis (A) | C. jejuni (R) |  | P. mirabilis; also recorded: E. coli; also recorded: S. pneumoniae | 
PF-585: peptide having multiple activities (DYNHLLNVVQDWVNTN; Peptide with targeting and/or antimicrobial activity) | S. pneumoniae (R) | MRSA (S) | G B |  | E. faecalis (A) | C. jejuni (R) | S. epidermidis (S) |  | S. epidermidis and E. coli and C. albicans and MRSA and S. pneumoniae and C. jeikeium
PF-576: peptide having multiple activities (chain 1 AYSGELPEPLVRKMSKEQVRSVMGK; chain 2 AYSGELPEPLVRKMSKEQVRSVMGK; Peptide with targeting and/or antimicrobial activity) | S. pneumoniae (C) | MRSA (R) | G B | E. coli (A) |  | C. jejuni (C) | S. epidermidis (A) |  | M. luteus; also recorded: P. mirabilis; also recorded: E. coli; also recorded: P. aeruginosa; also recorded: C. albicans; also recorded: S. pneumoniae
B1 | S. pneumoniae (D) | MRSA (C) | G B |  | E. faecalis (R) | C. jejuni (R) | S. epidermidis (R) |  | S. epidermidis and C. albicans and MRSA and S. pneumoniae and E. faecalis and C. jeikeium
